Data: patent publication US20200087258A1, “INHIBITOR OF CITRATE TRANSPORTER AND THEIR USE IN THERAPY” (Eternygen GmbH, priority 2017, published 2020)
pIC50: −log10 of the molar value.

Key:
[1] = target: T1, INDY (Homo sapiens, UniProt Q86YT5); assay: 14C-citrate uptake in HepG2 cells endogenously expressing INDY (NaCT); format: cell-based; conditions: endogenous INDY
How it was run: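 HepG2 cells, which express INDY endogenously, were preincubated with compound for 5 min at 37 °C in pH 6.5 Na+ citrate uptake buffer. 14C-citrate ([…]) was then added for 90 min at 37 °C. After washing and NaOH lysis, uptake was measured by scintillation counting, with 5 mM citrate as positive control.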

[2] = target: T1, INDY; assay: 14C-citrate uptake in HEK293 cells overexpressing recombinant human INDY (NaCT); format: cell-based; design: expressed in transfected cells; host or cells: HEK293
How it was run: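 HEK293 cells overexpressing human NaCT, 50,000/well, preincubated 5-30 min at 37 °C with compound in pH 6.5 Na+ buffer. 14C-citrate ([…]) uptake then ran 20-90 min at 37 °C, followed by ice-cold washes, NaOH lysis and scintillation counting. 10 mM citrate served as positive control.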

T1 sequence (Q86YT5 whole entry): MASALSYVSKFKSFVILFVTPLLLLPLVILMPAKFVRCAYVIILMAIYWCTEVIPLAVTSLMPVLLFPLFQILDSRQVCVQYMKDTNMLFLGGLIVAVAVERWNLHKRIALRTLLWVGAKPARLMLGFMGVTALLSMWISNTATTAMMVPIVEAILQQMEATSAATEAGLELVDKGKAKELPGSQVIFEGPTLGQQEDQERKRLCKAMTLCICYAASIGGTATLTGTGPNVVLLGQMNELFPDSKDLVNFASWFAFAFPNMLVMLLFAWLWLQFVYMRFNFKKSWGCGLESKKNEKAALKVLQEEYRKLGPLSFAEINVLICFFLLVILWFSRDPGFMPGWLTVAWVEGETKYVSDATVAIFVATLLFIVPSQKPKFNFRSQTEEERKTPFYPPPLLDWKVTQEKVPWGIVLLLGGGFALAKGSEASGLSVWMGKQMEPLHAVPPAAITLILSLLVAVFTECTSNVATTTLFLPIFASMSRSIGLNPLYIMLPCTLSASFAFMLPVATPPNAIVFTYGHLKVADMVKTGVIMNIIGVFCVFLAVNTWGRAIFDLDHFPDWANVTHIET

| Structure (SMILES) | pIC50 [1] | pIC50 [2] |
| --- | --- | --- |
| O=C(NCc1ccccc1F)C1CCN(S(=O)(=O)c2cc(Cl)cc(Cl)c2)CC1 [Example 44, 1-(3,5-dichlorobenzenesulfonyl)-N-[(2-fluorophenyl)methyl]piperidine-4-carboxamide] | 7.00 | 7.00 |
| O=C(NCc1ccccc1F)C1CCN(S(=O)(=O)c2ccc(C(F)(F)F)cc2)CC1 [Example 25, N-[(2-fluorophenyl)methyl]-1-[4-(trifluoromethyl)benzenesulfonyl]piperidine-4-carboxamide] | 6.52 | < 4.70 |
| O=C(NCc1ccccc1F)C1CCN(S(=O)(=O)/C=C/c2ccccc2)CC1 [Example 5] | 5.70 | 5.54 |
| O=C(NCc1ccccn1)C1CCN(S(=O)(=O)c2ccc(C(F)(F)F)cc2)CC1 [Example 57, N-[(pyridin-2-yl)methyl]-1-[4-(trifluoromethyl)benzenesulfonyl]piperidine-4-carboxamide] | 5.60 | 5.39 |
| CC(C)(C)c1ccc(S(=O)(=O)N2CCC(C(=O)NCc3ccccc3F)CC2)cc1 [Example 12, 1-(4-tert-butylbenzenesulfonyl)-N-[(2-fluorophenyl)methyl]piperidine-4-carboxamide] | 6.00 | 6.70 |
| COc1ccccc1CNC(=O)C1CN(S(=O)(=O)c2ccc(C(C)(C)C)cc2)C1 [Example 50, 1-(4-tert-butylbenzenesulfonyl)-N-[(2-methoxyphenyl)methyl]azetidine-3-carboxamide] | 5.15 | 5.36 |
| O=C(NCc1ccccn1)C1CCN(S(=O)(=O)c2cc(Cl)cc(Cl)c2)CC1 [Example 55, 1-(3,5-dichlorobenzenesulfonyl)-N-[(pyridin-2-yl)methyl]piperidine-4-carboxamide] | 6.40 | 6.10 |

Results, then the molecule that gave them:

| pIC50 [1] | pIC50 [2] | Structure (SMILES) |
| --- | --- | --- |
| 6.70 | 6.22 | O=C(NCc1ccccc1CO)C1CCN(S(=O)(=O)c2cc(Cl)cc(Cl)c2)CC1 [Example 87, 1-(3,5-dichlorobenzenesulfonyl)-N-{[2-(hydroxymethyl)phenyl]methyl}piperidine-4-carboxamide] |
| 7.00 | 6.52 | O=C(NCc1ccccn1)C1CCN(S(=O)(=O)c2cc(Cl)cc(C3CC3)c2)CC1 [Example 101, 1-(3-chloro-5-cyclopropylbenzenesulfonyl)-N-[(pyridin-2-yl)methyl]piperidine-4-carboxamide] |
| 6.40 | 5.96 | O=C(NCc1ccccn1)C1CCN(S(=O)(=O)c2ccc(S(F)(F)(F)(F)F)cc2)CC1 [Example 86, 1-[4-(pentafluoro-lambda6-sulfanyl)benzenesulfonyl]-N-[(pyridin-2-yl)methyl]pipendine-4-carboxamide] |
